# Source: PubChem BioAssay (NCI)
#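 Interpolation was linear, between the two tested concentrations surrounding the appropriate level; five concentrations were tested over 48 hours in 96-well plates. TGI marks complete inhibition of growth.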
# Assays:
# Experiment in all cases: NCI anticancer screen, dose series, 48 h
# MDA-MB-231 breast = tested on: MDA-MB-231 breast
# COLO 205 colon = tested on: COLO 205 colon
# SF-539 CNS = tested on: SF-539 CNS
# HOP-62 NSCLC = tested on: HOP-62 NSCLC
# HCC-2998 colon = tested on: HCC-2998 colon
# OVCAR-4 ovarian = tested on: OVCAR-4 ovarian
# NCI/ADR-RES ovarian = tested on: NCI/ADR-RES ovarian
# SF-295 CNS = tested on: SF-295 CNS
# SW-620 colon = tested on: SW-620 colon
# SK-MEL-5 melanoma = tested on: SK-MEL-5 melanoma
# 786-0 renal = tested on: 786-0 renal
# UACC-257 melanoma = tested on: UACC-257 melanoma
# OVCAR-8 ovarian = tested on: OVCAR-8 ovarian
# DU-145 prostate = tested on: DU-145 prostate
# SF-268 CNS = tested on: SF-268 CNS
# MOLT-4 leukemia = tested on: MOLT-4 leukemia
# HT29 colon = tested on: HT29 colon
# ACHN renal = tested on: ACHN renal
# TK-10 renal = tested on: TK-10 renal
# HL-60(TB) leukemia = tested on: HL-60(TB) leukemia
# A549 NSCLC = tested on: A549 NSCLC
# MALME-3M melanoma = tested on: MALME-3M melanoma
# HCT-116 colon = tested on: HCT-116 colon
# A498 renal = tested on: A498 renal
# MDA-MB-435 = tested on: MDA-MB-435
# HOP-92 NSCLC = tested on: HOP-92 NSCLC
# SK-MEL-28 melanoma = tested on: SK-MEL-28 melanoma
# PC-3 prostate = tested on: PC-3 prostate
# MDA-N = tested on: MDA-N
# SK-OV-3 ovarian = tested on: SK-OV-3 ovarian
# OVCAR-3 ovarian = tested on: OVCAR-3 ovarian
# T-47D breast = tested on: T-47D breast
# SNB-19 CNS = tested on: SNB-19 CNS
# RXF 393 renal = tested on: RXF 393 renal
# CAKI-1 renal = tested on: CAKI-1 renal
# EKVX NSCLC = tested on: EKVX NSCLC
# U251 CNS = tested on: U251 CNS
# HCT-15 colon = tested on: HCT-15 colon
# SN12C renal = tested on: SN12C renal
# LOX IMVI melanoma = tested on: LOX IMVI melanoma
# M14 melanoma = tested on: M14 melanoma
# OVCAR-5 ovarian = tested on: OVCAR-5 ovarian
# BT-549 breast = tested on: BT-549 breast
# RPMI-8226 leukemia = tested on: RPMI-8226 leukemia
# NCI-H226 lung = tested on: NCI-H226 lung
# NCI-H23 lung = tested on: NCI-H23 lung
# NCI-H522 lung = tested on: NCI-H522 lung
# HS 578T breast = tested on: HS 578T breast
# K-562 leukemia = tested on: K-562 leukemia
# UACC-62 melanoma = tested on: UACC-62 melanoma
# UO-31 renal = tested on: UO-31 renal
# SNB-75 CNS = tested on: SNB-75 CNS
# KM12 colon = tested on: KM12 colon
# CCRF-CEM leukemia = tested on: CCRF-CEM leukemia
# SR leukemia = tested on: SR leukemia
# NCI-H460 lung = tested on: NCI-H460 lung
# MCF7 breast = tested on: MCF7 breast
# IGROV1 ovarian = tested on: IGROV1 ovarian
# SK-MEL-2 melanoma = tested on: SK-MEL-2 melanoma
smiles,measurement,setting,value
C=C(Cl)C(Cl)(CBr)CCC(Br)C(C)(C)Br (stereo not drawn),TGI,MDA-MB-231 breast,27.6 µM
same,TGI,COLO 205 colon,10.8 µM
same,TGI,SF-539 CNS,4.01 µM
same,TGI,HOP-62 NSCLC,1.83 µM
same,TGI,HCC-2998 colon,19.9 µM
same,TGI,OVCAR-4 ovarian,36 µM
same,TGI,NCI/ADR-RES ovarian,> 55.4 µM
same,TGI,SF-295 CNS,3.78 µM
same,TGI,SW-620 colon,8.32 µM
same,TGI,SK-MEL-5 melanoma,30.2 µM
same,TGI,786-0 renal,2.59 µM
same,TGI,UACC-257 melanoma,4.4 µM
same,TGI,OVCAR-8 ovarian,13.9 µM
same,TGI,DU-145 prostate,11.9 µM
same,TGI,SF-268 CNS,10.7 µM
same,TGI,MOLT-4 leukemia,25.3 µM
same,TGI,HT29 colon,2.41 µM
same,TGI,ACHN renal,5.53 µM
same,TGI,TK-10 renal,3.12 µM
same,TGI,HL-60(TB) leukemia,6.02 µM
same,TGI,A549 NSCLC,16.3 µM
same,TGI,MALME-3M melanoma,29.6 µM
same,TGI,HCT-116 colon,4.04 µM
same,TGI,A498 renal,23.3 µM
same,TGI,MDA-MB-435,24.5 µM
same,TGI,HOP-92 NSCLC,4.38 µM
same,TGI,SK-MEL-28 melanoma,10.1 µM
same,TGI,PC-3 prostate,5.68 µM
same,TGI,MDA-N,21.2 µM
same,TGI,SK-OV-3 ovarian,26.5 µM
same,TGI,OVCAR-3 ovarian,6.65 µM
same,TGI,T-47D breast,7.42 µM
same,TGI,SNB-19 CNS,23.1 µM
same,TGI,RXF 393 renal,4.03 µM
same,TGI,CAKI-1 renal,5.3 µM
same,TGI,EKVX NSCLC,15.6 µM
same,TGI,U251 CNS,3.37 µM
same,TGI,HCT-15 colon,9.35 µM
same,TGI,SN12C renal,19.7 µM
same,TGI,LOX IMVI melanoma,33.3 µM
same,TGI,M14 melanoma,33.6 µM
same,TGI,OVCAR-5 ovarian,25.4 µM
same,TGI,BT-549 breast,20.8 µM
same,TGI,RPMI-8226 leukemia,2.01 µM
same,TGI,NCI-H226 lung,37.2 µM
same,TGI,NCI-H23 lung,31.5 µM
same,TGI,NCI-H522 lung,19.3 µM
same,TGI,HS 578T breast,12.1 µM
same,TGI,K-562 leukemia,16.3 µM
same,TGI,UACC-62 melanoma,28.5 µM
same,TGI,UO-31 renal,20.1 µM
same,TGI,SNB-75 CNS,5.45 µM
same,TGI,KM12 colon,3.45 µM
same,TGI,CCRF-CEM leukemia,23.5 µM
same,TGI,SR leukemia,32.9 µM
same,TGI,NCI-H460 lung,3.71 µM
same,TGI,MCF7 breast,3.34 µM
same,TGI,IGROV1 ovarian,37.3 µM
COc1ccc(C2SC(N)=Nc3c2c(C)nn3C(=O)c2ccccc2O)cc1OC (stereo not drawn),TGI,MDA-MB-231 breast,> 10 µM
same,TGI,COLO 205 colon,> 10 µM
same,TGI,SF-539 CNS,> 10 µM
same,TGI,HOP-62 NSCLC,> 10 µM
same,TGI,OVCAR-4 ovarian,> 10 µM
same,TGI,NCI/ADR-RES ovarian,> 10 µM
same,TGI,SF-295 CNS,> 10 µM
same,TGI,SW-620 colon,> 10 µM
same,TGI,786-0 renal,> 10 µM
same,TGI,UACC-257 melanoma,> 10 µM
same,TGI,DU-145 prostate,> 10 µM
same,TGI,SF-268 CNS,> 10 µM
same,TGI,MOLT-4 leukemia,> 10 µM
same,TGI,HT29 colon,> 10 µM
same,TGI,ACHN renal,> 10 µM
same,TGI,TK-10 renal,> 10 µM
same,TGI,HL-60(TB) leukemia,> 10 µM
same,TGI,A549 NSCLC,> 10 µM
same,TGI,MALME-3M melanoma,> 10 µM
same,TGI,HCT-116 colon,7.47 µM
same,TGI,A498 renal,> 10 µM
same,TGI,MDA-MB-435,> 10 µM
same,TGI,HOP-92 NSCLC,4.36 µM
same,TGI,SK-MEL-28 melanoma,> 10 µM
same,TGI,PC-3 prostate,> 10 µM
same,TGI,MDA-N,> 10 µM
same,TGI,SK-OV-3 ovarian,> 10 µM
same,TGI,OVCAR-3 ovarian,> 10 µM
same,TGI,T-47D breast,> 10 µM
same,TGI,SNB-19 CNS,> 10 µM
same,TGI,RXF 393 renal,> 10 µM
same,TGI,CAKI-1 renal,> 10 µM
same,TGI,EKVX NSCLC,> 10 µM
same,TGI,U251 CNS,> 10 µM
same,TGI,HCT-15 colon,> 10 µM
same,TGI,SN12C renal,> 10 µM
same,TGI,LOX IMVI melanoma,> 10 µM
same,TGI,M14 melanoma,> 10 µM
same,TGI,OVCAR-5 ovarian,> 10 µM
same,TGI,BT-549 breast,> 10 µM
same,TGI,RPMI-8226 leukemia,> 10 µM
same,TGI,NCI-H226 lung,> 10 µM
same,TGI,NCI-H23 lung,> 10 µM
same,TGI,SK-MEL-2 melanoma,> 10 µM
same,TGI,HS 578T breast,5.11 µM
same,TGI,K-562 leukemia,> 10 µM
same,TGI,UACC-62 melanoma,7.93 µM
same,TGI,UO-31 renal,> 10 µM
same,TGI,SNB-75 CNS,9.32 µM
same,TGI,KM12 colon,> 10 µM
same,TGI,CCRF-CEM leukemia,> 10 µM
same,TGI,SR leukemia,> 10 µM
same,TGI,NCI-H460 lung,> 10 µM
same,TGI,MCF7 breast,> 10 µM
same,TGI,IGROV1 ovarian,> 10 µM
